Measurements taken from US10961200B2, “Small molecule inhibitors of lactate dehydrogenase and methods of use thereof” (THE UNITED STATES OF AMERICA, AS REPRESENTED BY THE …, priority 2014, dated 2021).
Where two headings read alike, the source gives them in different places.

Biological target: Human LDHA (Homo sapiens (Human), UniProt P00338)
Experiment: human LDHA primary biochemical assay (resazurin/diaphorase coupled, fluorescence)
Text: Test compounds were placed in a Greiner Bio-One (Monroe, N.C.) 1536-well black solid bottom assay plate. 200 millimolar (mM) Tris HCl, pH 7.4, 100 micromolar […] EDTA and 0.01% TWEEN-20™, final concentration, was used as the assay buffer. The LDHA reagent was 2 nanomolar (nM) Human LDHA (Meridian Life Science, Inc., Memphis, Tenn.), final concentration, in assay buffer.

[1] = read-out: Inhibitory activity IC50
[2] = LDHA inhibitory activity, assay of Example 1, activity level classes

SMILES | IC50 [1] [nM] | IC50 [2] [nM]
CCOC(=O)c1coc(-n2nc(-c3ccccc3)c(Cc3ccc(S(N)(=O)=O)cc3)c2N)n1 [Compound 151, ethyl 2-(5-amino-3-phenyl-4-(4-sulfamoylbenzyl)-1H-pyrazol-1-yl)oxazole-4-carboxylate] | 1000 to 57000 | 
Nc1c(Cc2ccc(S(N)(=O)=O)cc2)c(-c2ccccc2)nn1-c1nccc(O)n1 [Compound 152, 4-((5-amino-1-(4-hydroxypyrimidin-2-yl)-3-phenyl-1H-pyrazol-4-yl)methyl)benzenesulfonamide] |  | > 57000
Nc1c(Cc2ccc(S(N)(=O)=O)cc2)c(-c2ccccc2)nn1-c1nc(C(=O)O)co1 [Compound 153, 2-(5-amino-3-phenyl-4-(4-sulfamoylbenzyl)-1H-pyrazol-1-yl)oxazole-4-carboxylic acid] | 100 to 1000 | 
NS(=O)(=O)c1ccc(Cc2cn(-c3nc(C(O)C(F)(F)F)cs3)nc2-c2ccccc2)cc1 (stereo not drawn) [Compound 154, 4-((3-phenyl-1-(4-(2,2,2-trifluoro-1-hydroxyethyl)thiazol-2-yl)-1H-pyrazol-4-yl)methyl)benzenesulfonamide] | 100 to 1000 | 
NS(=O)(=O)c1ccc(Cc2c(-c3ccccc3)nn(-c3nc(C(=O)O)cs3)c2-c2ccccc2)cc1 [Compound 155, 2-(3,5-diphenyl-4-(4-sulfamoylbenzyl)-1H-pyrazol-1-yl)thiazole-4-carboxylic acid] | < 100 | 
NS(=O)(=O)c1ccc(Cc2c(-c3ccccc3)nn(-c3nc(C(=O)O)cs3)c2-c2ccncc2)cc1 [Compound 156, 2-(3-phenyl-5-(pyridin-4-yl)-4-(4-sulfamoylbenzyl)-1H-pyrazol-1-yl)thiazole-4-carboxylic acid] | 1000 to 57000 | 
CC(C)c1nn(-c2nc(C(=O)O)cs2)c(-c2ccccc2)c1Cc1ccc(S(N)(=O)=O)cc1 [Compound 158, 2-(3-isopropyl-5-phenyl-4-(4-sulfamoylbenzyl)-1H-pyrazol-1-yl)thiazole-4-carboxylic acid] | 1000 to 57000 | 
CC(C)c1c(Cc2ccc(S(N)(=O)=O)cc2)c(-c2ccccc2)nn1-c1nc(C(=O)O)cs1 [Compound 159, 2-(5-isopropyl-3-phenyl-4-(4-sulfamoylbenzyl)-1H-pyrazol-1-yl)thiazole-4-carboxylic acid] | 100 to 1000 | 
NS(=O)(=O)c1ccc(Nc2c[nH]nc2-c2cccc(-c3ccccc3)c2)cc1 [Compound 161] |  | > 57000
CCOC(=O)c1csc(-n2cc(Nc3ccc(S(N)(=O)=O)cc3)c(-c3cccc(-c4ccccc4)c3)n2)n1 [Compound 162, ethyl 2-(3-([1,1′-biphenyl]-3-yl)-4-((4-sulfamoylphenyl)amino)-1H-pyrazol-1-yl)thiazole-4-carboxylate] | 1000 to 57000 | 
CCOC(=O)c1csc(-n2nc(C3CC3)c(Oc3ccc(S(N)(=O)=O)cc3)c2-c2ccccc2)n1 [Compound 163, ethyl 2-(3-cyclopropyl-5-phenyl-4-(4-sulfamoylphenoxy)-1H-pyrazol-1-yl)thiazole-4-carboxylate] |  | > 57000
NS(=O)(=O)c1ccc(Oc2c(-c3ccccc3)nn(-c3nc(C(=O)O)cs3)c2C2CC2)cc1 [Compound 166, 2-(5-cyclopropyl-3-phenyl-4-(4-sulfamoylphenoxy)-1H-pyrazol-1-yl)thiazole-4-carboxylic acid] |  | < 100
C=Cc1c(Cc2ccc(S(N)(=O)=O)cc2)c(-c2ccccc2)nn1-c1nc(C(=O)O)cs1 [Compound 167, 2-(3-phenyl-4-(4-sulfamoylbenzyl)-5-vinyl-1H-pyrazol-1-yl)thiazole-4-carboxylic acid] |  | < 100
NS(=O)(=O)c1ccc(Oc2c(C3CCCC3)nn(-c3nc(C(=O)O)cs3)c2-c2ccccc2)cc1 [Compound 170, 2-(3-cyclopentyl-5-phenyl-4-(4-sulfamoylphenoxy)-1H-pyrazol-1-yl)thiazole-4-carboxylic acid] | 1000 to 57000 | 
NS(=O)(=O)c1ccc(Oc2c(C3CCCC3)nn(-c3nc(C(=O)O)cs3)c2-c2ccccc2)cc1 [Compound 174, 2-(3-cyclopentyl-5-phenyl-4-(4-sulfamoylphenoxy)-1H-pyrazol-1-yl)thiazole-4-carboxylic acid] |  | 1000 to 57000
NS(=O)(=O)c1ccc(Cc2c(-c3ccccc3)nn(-c3nc(C(=O)O)cs3)c2C#Cc2ccccc2)cc1 [Compound 179, 2-(3-phenyl-5-(phenylethynyl)-4-(4-sulfamoylbenzyl)-1H-pyrazol-1-yl)thiazole-4-carboxylic acid] | 1000 to 57000 | 

Results, then the molecule that gave them:

IC50 [1] [nM] | IC50 [2] [nM] | SMILES
1000 to 57000 |  | CCOC(=O)c1csc(-n2nc(-c3ccccc3)c(Oc3ccc(S(N)(=O)=O)cc3)c2C2CC2)n1 [Compound 164, ethyl 2-(5-cyclopropyl-3-phenyl-4-(4-sulfamoylphenoxy)-1H-pyrazol-1-yl)thiazole-4-carboxylate]
1000 to 57000 |  | NS(=O)(=O)c1ccc(Oc2c(C3CC3)nn(-c3nc(C(=O)O)cs3)c2-c2ccccc2)cc1 [Compound 165]
 | > 57000 | CCOC(=O)c1csc(-n2nc(C3CCCC3)c(Oc3ccc(S(N)(=O)=O)cc3)c2-c2ccccc2)n1 [Compound 168, ethyl 2-(3-cyclopentyl-5-phenyl-4-(4-sulfamoylphenoxy)-1H-pyrazol-1-yl)thiazole-4-carboxylate]
 | > 57000 | CCOC(=O)c1csc(-n2nc(-c3ccccc3)c(Oc3ccc(S(N)(=O)=O)cc3)c2C2CCCC2)n1 [Compound 169, ethyl 2-(5-cyclopentyl-3-phenyl-4-(4-sulfamoylphenoxy)-1H-pyrazol-1-yl)thiazole-4-carboxylate]
100 to 1000 |  | NS(=O)(=O)c1ccc(Oc2c(-c3ccccc3)nn(-c3nc(C(=O)O)cs3)c2C2CCCC2)cc1 [Compound 171, 2-(5-cyclopentyl-3-phenyl-4-(4-sulfamoylphenoxy)-1H-pyrazol-1-yl)thiazole-4-carboxylic acid]
1000 to 57000 |  | NS(=O)(=O)c1ccc(Oc2c(C3CCCCC3)nn(-c3nc(C(=O)O)cs3)c2-c2ccccc2)cc1 [Compound 172, 2-(3-cyclohexyl-5-phenyl-4-(4-sulfamoylphenoxy)-1H-pyrazol-1-yl)thiazole-4-carboxylic acid]
1000 to 57000 |  | NS(=O)(=O)c1ccc(Oc2c(-c3ccccc3)nn(-c3nc(C(=O)O)cs3)c2C2CCCCC2)cc1 [Compound 173, 2-(5-cyclohexyl-3-phenyl-4-(4-sulfamoylphenoxy)-1H-pyrazol-1-yl)thiazole-4-carboxylic acid]
100 to 1000 |  | NS(=O)(=O)c1ccc(Cc2c(-c3ccccc3)nn(-c3nc(C(=O)O)cs3)c2C2CCCC2)cc1 [Compound 175, 2-(5-cyclopentyl-3-phenyl-4-(4-sulfamoylbenzyl)-1H-pyrazol-1-yl)thiazole-4-carboxylic acid]
1000 to 57000 |  | NS(=O)(=O)c1ccc(Cc2c(C3CCCCC3)nn(-c3nc(C(=O)O)cs3)c2-c2ccccc2)cc1 [Compound 176, 2-(3-cyclohexyl-5-phenyl-4-(4-sulfamoylbenzyl)-1H-pyrazol-1-yl)thiazole-4-carboxylic acid]
1000 to 57000 |  | NS(=O)(=O)c1ccc(Cc2c(-c3ccccc3)nn(-c3nc(C(=O)O)cs3)c2C2CCCCC2)cc1 [Compound 177, 2-(5-cyclohexyl-3-phenyl-4-(4-sulfamoylbenzyl)-1H-pyrazol-1-yl)thiazole-4-carboxylic acid]
1000 to 57000 |  | NS(=O)(=O)c1ccc(Cc2c(-c3ccccc3)nn(-c3nc(C(=O)O)cs3)c2C2CO2)cc1 (stereo not drawn) [Compound 178, 2-(5-(oxiran-2-yl)-3-phenyl-4-(4-sulfamoylbenzyl)-1H-pyrazol-1-yl)thiazole-4-carboxylic acid]
